# From patent US5126265A, “AB-021 antibiotics and process for producing them” (Presidenza del Consiglio dei Ministri-Ufficio del Ministro …, priority 1988, dated 1992)
# Tested on: Streptomyces sp. NCIB 40068
# Assay: Resistance of the producing strain (Table B)
# Type: cell-based
# Settings: producing strain Streptomyces sp. NCIB 40068
row,Compound,Resistance to (antimicrobial)
1,CN(C)C1C(=O)C(C(N)=O)=C(O)C2(O)C(=O)C3=C(O)c4c(O)cccc4C(C)(O)C3C(O)C12 (stereo not drawn) [Oxytetracycline],8 ppm
2,CO[C@H]1/C=C/O[C@@]2(C)Oc3c(C)c(O)c4c(O)c(c(/C=N/N5CCN(C)CC5)c(O)c4c3C2=O)NC(=O)/C(C)=C\C=C\[C@H](C)[C@H](O)[C@@H](C)[C@@H](O)[C@@H](C)[C@H](OC(C)=O)[C@@H]1C [Rifampicin],2 ppm
3,Lysozyme,10 ppm
